The source of these data is patent US20240400575A1, “POLYCYCLIC COMPOUNDS AS SOLUBLE EPOXIDE HYDROLASE INHIBITORS” (Universitat De Barcelona, priority 2018, published 2024).

In the assay the target is T1, recombinant human sEH (hsEH) (Homo sapiens, UniProt P34913).
T1 construct: purchased Cayman Chemical 10011669
T1 sequence (P34913 1-555): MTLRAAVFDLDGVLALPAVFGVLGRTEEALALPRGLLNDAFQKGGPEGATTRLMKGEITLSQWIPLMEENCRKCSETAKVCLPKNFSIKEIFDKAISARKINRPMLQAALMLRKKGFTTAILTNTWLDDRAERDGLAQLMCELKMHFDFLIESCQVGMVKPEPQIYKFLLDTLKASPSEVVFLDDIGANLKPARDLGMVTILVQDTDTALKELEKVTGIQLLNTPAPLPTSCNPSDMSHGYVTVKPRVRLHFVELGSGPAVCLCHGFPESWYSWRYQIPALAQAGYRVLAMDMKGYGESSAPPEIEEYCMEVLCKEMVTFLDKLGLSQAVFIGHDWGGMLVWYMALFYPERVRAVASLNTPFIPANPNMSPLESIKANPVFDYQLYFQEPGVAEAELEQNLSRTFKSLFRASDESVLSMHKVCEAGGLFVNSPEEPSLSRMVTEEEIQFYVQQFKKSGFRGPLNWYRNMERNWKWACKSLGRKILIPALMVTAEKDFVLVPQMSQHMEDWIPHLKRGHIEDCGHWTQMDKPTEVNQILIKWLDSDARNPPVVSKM
As to the kind of experiment: In vitro determination of sEH inhibition activity (fluorescent assay, PHOME substrate). Format: biochemical. To be noted: fluorescence, Bis/Tris HCl pH 7.0 with 0.1 mg/mL BSA. How it is done: Add 5 μL of DMSO to background and positive control wells, and then add 5 μL of inhibitor solution in inhibitor wells. Add 5 μL of the solution of hsEH to the positive control and inhibitor wells and stir the mixture. Prepare a 1/21 dilution of the solution of PHOME with assay buffer according to final volume required, and then add 105 μL of each well. Shake carefully the plate for 10 seconds and incubate for 5 minutes at room temperature. […] The intensity of fluorescence was used to analyze and calculate the IC50 values. Results were obtained by regression analysis from at least three data points in a linear region of the curve. IC50 values are average of minimum three independent replicates.

Molecules are shown by their SMILES.

In the case of `CC12CC3CC(NC(=S)Nc4ccc(C(F)(F)F)cc4)(CC(C1)c1ccccc13)C2` [Example 35, 1-(9-methyl-5,6,8,9,10,11-hexahydro-7H-5,9:7,11-dimethanobenzo[9]annulen-7-yl)-3-(4-(trifluoromethyl)phenyl)thiourea], the IC50 lay in the range of 100 to 1000 nM. The value for `CC(=O)N1CCC(NC(=O)NC23CC4CC(C)(CC(C2)c2ccccc24)O3)CC1` [Example 36, 1-(1-acetylpiperidin-4-yl)-3-(5-methyl-1,5,6,7-tetrahydro-1,5:3,7-dimethanobenzo[e]oxonin-3(2H)-yl)urea] was 100 to 1000 nM; that for `CC12CC3CC(NC(=O)NC4CCC(Oc5ccc(C(=O)O)cc5)CC4)(CC(C1)c1ccccc13)O2` (centres unmarked) [Example 43, 4-(((1r,4r)-4-(3-(5-methyl-1,5,6,7-tetrahydro-1,5:3,7-dimethanobenzo [e]oxonin-3(2H)-yl)ureido)cyclohexyl)oxy)benzoic acid] was 10 to 50 nM. Consider `CC12CC3CC(NC(=O)NC4CCC(Oc5ccc(C(=O)O)cc5)CC4)(CC(C1)c1ccccc13)C2` (centres unmarked) [Example 44, 4-(((1r,4r)-4-(3-(9-methyl-5,6,8,9,10,11-hexahydro-7H-5,9:7,11-dimethanobenzo[9]annulen-7-yl)ureido)cyclohexyl)oxy)benzoic acid], for which the IC50 was less than 10 nM. For `CC12CC3CC(NC(=O)NC4CCN(Cc5ccccc5)CC4)(CC(C1)c1ccccc13)C2` [Example 48, 1-(1-benzylpiperidin-4-yl)-3-(9-methyl-5,6,8,9,10,11-hexahydro-7H-5,9:7,11-dimethanobenzo[9]annulen-7-yl)urea], the IC50 was less than 10 nM.

Turning to `CC(=O)c1ccc2c(c1)C1CC3(C)CC2CC(NC(=O)NC2CCN(C(C)=O)CC2)(C1)C3` (centres unmarked) [Example 51, 1-(2-acetyl-9-methyl-5,6,8,9,10,11-hexahydro-7H-5,9:7,11-dimethano-benzo[9]annulen-7-yl)-3-(1-acetylpiperidin-4-yl)urea], the half-inhibitory concentration (IC50) was less than 10 nM. The value for `CC(=O)N1CCC(NC(=O)NC23CC4CC(C)(CC(C2)c2cc([N+](=O)[O-])ccc24)C3)CC1` (centres unmarked) [Example 52, 1-(1-acetylpiperidin-4-yl)-3-(9-methyl-2-nitro-5,6,8,9,10,11-hexahydro-7H-5,9:7,11-dimethanobenzo[9]annulen-7-yl)urea] was less than 10 nM; that for `CC(=O)N1CCC(NC(=O)NC23CC4CC(C)(CC(C2)c2cc(N)ccc24)C3)CC1` (centres unmarked) [Example 53, 1-(1-acetylpiperidin-4-yl)-3-(2-amino-9-methyl-5,6,8,9,10,11-hexa-hydro-7H-5,9:7,11-dimethanobenzo[9]annulen-7-yl)urea] was 10 to 50 nM; that for `CC(C)S(=O)(=O)N1CCC(CC(=O)NC23CC4CC(C)(CC(C2)c2ccccc24)C3)CC1` [Example 56, 2-[1-(isopropylsulfonyl)piperidin-4-yl]-N-(9-methyl-5,6,8,9,10,11-hexahydro-7H-5,9:7,11-dimethanobenzo[9]annulen-7-yl)acetamide] was 10 to 50 nM. In the case of `CC(=O)N1CCC(CC(=O)NC23CC4CC(C)(CC(C2)c2ccccc24)C3)CC1` [Example 57, 2-(1-acetylpiperidin-4-yl)-N-(9-methyl-5,6,8,9,10,11-hexahydro-7H-5,9:7,11-dimethanobenzo[9]annulen-7-yl)acetamide], the IC50 lay in the range of 100 to 1000 nM.

On to `CC12CC3CC(NC(=O)Nc4ccc(F)c(F)c4F)(CC(C1)c1ccccc13)C2` [Example 58, 1-(9-methyl-6,7,8,9,10,11-hexahydro-5H-5,9:7,11-dimethanobenzo[9]annulen-7-yl)-3-(2,3,4-trifluorophenyl)urea], for which the IC50 was less than 10 nM. Regarding `CC12CC3CC(NC(=O)Nc4ccc(F)c(F)c4F)(CC(C1)c1ccccc13)O2` [Example 59, 1-(5-methyl-1,5,6,7-tetrahydro-1,5:3,7-dimethanobenzo[e]oxonin-3(2H)-yl)-3-(2,3,4-trifluorophenyl)urea], the IC50 fell in the range of 10 to 50 nM. Consider `CC12CC3CC(NC(=O)CC4CCN(Cc5ccccc5)CC4)(CC(C1)c1ccccc13)C2` [Example 60, 2-(1-benzylpiperidin-4-yl)-N-(9-methyl-5,6,8,9,10,11-hexahydro-7H-5.9:7,11-dimethanobenzo[9]annulen-7-yl)acetamide], for which the IC50 was 100 to 1000 nM. With `CC(=O)c1ccc(N2CCC(NC(=O)NC34CC5CC(C)(CC(C3)c3ccccc35)C4)CC2)cc1` [Example 64, 1-(1-(4-acetylphenyl)piperidin-4-yl)-3-(9-methyl-5,6,8,9,10,11-hexahydro-7H-5,9:7,11-dimethanobenzo[9]annulen-7-yl)urea], the half-maximal inhibitory concentration (IC50) was less than 10 nM. The same measure for `CC12CC3CC(NC(=O)NC4CCN(C(=O)c5ccccc5F)CC4)(CC(C1)c1ccccc13)C2` [Example 66, 1-(1-(2-fluorobenzoyl)piperidin-4-yl)-3-(9-methyl-5,6,8,9,10,11-hexa-hydro-7H-5,9:7,11-dimethanobenzo[9]annulen-7-yl)urea]: less than 10 nM; for `CC12CC3CC(NC(=O)NC4CC5CCC(C4)N5Cc4ccccc4)(CC(C1)c1ccccc13)C2` [Example 67, 1-((1R,3s,5S)-8-benzyl-8-azabicyclo[3.2.1]octan-3-yl)-3-(9-methyl-5,6,8.9.10,11-hexahydro-7H-5.9:7,11-dimethanobenzo[9]annulen-7-yl)urea]: less than 10 nM; for `CC(=O)N1CCC(NC(=O)NC23CC4CC(C)(CC(C2)c2cc(F)ccc24)C3)CC1` (centres unmarked) [Example 68, 1-(1-acetylpiperidin-4-yl)-3-(2-fluoro-9-methyl-5,6,8,9,10,11-hexahydro-7H-5,9:7,11-dimethanobenzo[9]annulen-7-yl)urea]: less than 10 nM. The same measure for `COc1ccc2c(c1)C1CC3(C)CC2CC(NC(=O)NC2CCN(C(C)=O)CC2)(C1)C3` (centres unmarked) [Example 69, 1-(1-acetylpiperidin-4-yl)-3-(2-methoxy-9-methyl-5,6,8,9,10,11-hexa-hydro-7H-5.9:7,11-dimethanobenzo[9]annulen-7-yl)urea]: less than 10 nM. Turning to `CC(=O)N1CCC(NC(=O)NC23CC4CC(C)(CC(C2)c2c(F)cccc24)C3)CC1` (centres unmarked) [Example 70, 1-(1-acetylpiperidin-4-yl)-3-(1-fluoro-9-methyl-5,6,8,9,10,11-hexahydro-7H-5,9:7,11-dimethanobenzo[9]annulen-7-yl)urea], the IC50 was less than 10 nM. The same measure for `COc1cc2c(cc1OC)C1CC3(C)CC2CC(NC(=O)NC2CCN(C(C)=O)CC2)(C1)C3` [Example 71, 1-(1-acetylpiperidin-4-yl)-3-(2,3-dimethoxy-9-methyl-5,6,8,9,10,11-hexahydro-7H-5.9:7,11-dimethanobenzo[9]annulen-7-yl)urea]: less than 10 nM; for `CC(=O)N1CCC(NC(=O)NC23CC4CC2CC(C3)c2ccccc24)CC1` [Example 72, 1-(1-acetylpiperidin-4-yl)-3-(5,8,9,10-tetrahydro-5,8:7,10-dimethano-benzo[8]annulen-7(6H)-yl)urea]: 10 to 50 nM.

Regarding `COC12CC3CC(NC(=O)Nc4nc5ccccc5s4)(CC(C1)c1ccccc13)C2` [Example 73, 1-(benzo[d]thiazol-2-yl)-3-(9-methoxy-5,6,8,9,10,11-hexahydro-7H-5,9:7,11-dimethanobenzo[9]annulen-7-yl)urea], the IC50 was in the range of 100 to 1000 nM. In the case of `CC(=O)N1CCC(NC(=O)NC23CC4CC(F)(CC(C2)c2c(F)cccc24)C3)CC1` (centres unmarked) [Example 74, 1-(1-acetylpiperidin-4-yl)-3-(1,9-difluoro-5,6,8,9,10,11-hexahydro-7H-5,9:7,11-dimethanobenzo[9]annulen-7-yl)urea], the IC50 is less than 10 nM.

In general, IC50 refers to the concentration at which inhibition is half-maximal.
